Where two headings read alike, the source gives them in different places. Numbered stars: 1 amine (or outer) side, 2 acyl side, 3 side chain; on linkers, the order of the positions; unused ones are H or OH. Bridge positions count the residues as written; N and C are the ends. Square brackets hold non-standard residues; d marks the D form. Peptide text beside a SMILES is read from it. X1 = O=C(O)CCCCCCCCCCCCCCCCCCC(=O)N[C@@H](CCC(=O)NCCOCCOCC(=O)NCCCC[C@H](N[*:2])C(=O)[*:1])C(=O)O; αMeL = CC(C)C[C@](C)(N)C(=O)O; Aib = CC(C)(N)C(=O)O
How the values were obtained:
[1] = target: T1, GLP-1R (Homo sapiens, UniProt P43220); test: In vitro GLP-1R agonistic activity test (cAMP, HEK293 cell line); type: cell-based
T1 construct: host or cells: HEK293
T1 sequence (P43220 24-463, species assumed): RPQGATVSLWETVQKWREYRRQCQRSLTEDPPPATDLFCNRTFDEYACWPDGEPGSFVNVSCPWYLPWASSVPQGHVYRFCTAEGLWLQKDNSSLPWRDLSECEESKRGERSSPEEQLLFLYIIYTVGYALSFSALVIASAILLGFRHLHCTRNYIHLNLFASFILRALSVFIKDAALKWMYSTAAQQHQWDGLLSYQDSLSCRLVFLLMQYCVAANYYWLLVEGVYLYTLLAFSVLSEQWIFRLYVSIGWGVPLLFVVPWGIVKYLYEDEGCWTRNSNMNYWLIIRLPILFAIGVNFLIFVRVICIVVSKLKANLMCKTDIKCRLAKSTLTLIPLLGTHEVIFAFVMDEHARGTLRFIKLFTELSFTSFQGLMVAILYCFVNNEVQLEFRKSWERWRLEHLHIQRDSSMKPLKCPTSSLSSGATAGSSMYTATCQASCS
Experimental: The cell lines were constructed by Pharmaron Inc. See details in the table below.
The test compounds were diluted at a 5-fold dilution factor in 10 points, starting from an initial concentration of 200 nM.
1) The cell lines were cultured respectively in complete medium at 37° C. and 5% CO2.
1) Eu-cAMP tracer was freeze-thawed and diluted 50 fold with detection buffer; and Ulight-anti-cAMP was freeze-thawed and diluted 150 fold with detection buffer.
3) 10 μL of Eu-cAMP tracer was added and then 10 μL of Uligh-anti-cAMP was added into experimental wells respectively.
4) The reaction plate was centrifuged at 200 g at room temperature for 30 s and left for stand at 25° C. for 1 h.

[2] = Metabolic stability in human kidney S9; type: in vitro ADME; settings: human, s9
Experimental: The metabolic stability of the compounds in human kidney was evaluated to determine whether the drugs would be degraded by metabolic enzymes in the kidney to affect the efficacies and pharmacokinetics. 1. Relevant solutions were formulated. 2. a) With cofactors (NADPH & UDPGA): NADPH and UDPGA were added during the incubation. […] H2O was added into the culture solution. The final concentration of KS9 Fractions was 1 mg/mL. The mixture was pre-heated at 37° C. for 10 min. […] In this study, 7-hydroxy-coumarin and Raloxifene were used as the positive control. The final concentration of the positive control compounds was 0.2 μM, and the final concentration of the test compound was 1 μM. The culture solution was incubated in water bath at 37° C. 4. At 0.5, 5, 15, 30 and 60 min, volume aliquots were taken from the reaction solution and the reaction was stopped by adding acetonitrile. The samples were centrifuged for 30 min. The supernatant was taken and mixed with ultrapure water for subsequent LC-MS/MS analysis. 5. Data analysis: All calculation was conducted using Microsoft Excel. Peak areas were determined and slope values were calculated based on the extracted ion chromatograms.

[3] = Pharmacokinetic properties in Cynomolgus macaques; settings: cynomolgus monkey, in vivo, male cynomolgus macaques, plasma
Experimental: To test the pharmacokinetic profiles of the compounds in Cynomolgus macaques.
Non-juvenile male cynomolgus macaques were used for experiment, 3 cynomolgus macaques for each compound. Whole blood was collected at time points of 1 h, 2 h, 4 h, 8 h, 16 h, 24 h, 48 h, 72 h, 120 h, 168 h and 240 h after administration, to prepare plasma. The drug concentration was analyzed by LC-MS/MS method, and the pharmacokinetic parameters were calculated using Phoenix WinNonlin software.

[4] = cAMP, HEK293 cells expressing GLP-1R, read-out: GLP-1 EC50

**Q.** For `CC[C@H](C)[C@@H]1NC(=O)[C@H](Cc2ccccc2)NC(=O)[C@@H](NC(=O)C(C)(C)NC(=O)[C@H](CCC(N)=O)NC(=O)[C@H](C)NC(=O)[C@H](CCCCN)NC(=O)[C@H](CCCCN)NC(=O)[C@H](CC(=O)O)NC(=O)[C@H](CC(C)C)NC(=O)[C@](C)(CC(C)C)NC(=O)[C@@H](NC(=O)[C@H](CO)NC(=O)[C@H](Cc2ccc(O)cc2)NC(=O)[C@H](CC(=O)O)NC(=O)[C@H](CO)NC(=O)[C@@H](NC(=O)[C@H](Cc2ccccc2)NC(=O)[C@@H](NC(=O)CNC(=O)[C@H](CCC(N)=O)NC(=O)C(C)(C)NC(=O)[C@@H](N)Cc2ccc(O)cc2)[C@@H](C)O)[C@@H](C)O)[C@@H](C)CC)CCCCNC(=O)CN(C(=O)COCCOCCNC(=O)COCCOCCNC(=O)CC[C@H](NC(=O)CCCCCCCCCCCCCCCCCCC(=O)O)C(=O)O)CC(=O)NCCCC[C@@H](C(=O)NCC(=O)NCC(=O)N2CCC[C@H]2C(=O)N[C@@H](CO)C(=O)N[C@@H](CO)C(=O)NCC(=O)N[C@@H](C)C(=O)N2CCC[C@H]2C(=O)N2CCC[C@H]2C(=O)N2CCC[C@H]2C(=O)N[C@@H](CO)C(N)=O)NC(=O)[C@H](CC(C)C)NC(=O)[C@H](CC(C)C)NC(=O)[C@H](Cc2ccc(O)cc2)NC(=O)[C@H](CCC(=O)O)NC1=O` [Example 14, YAibQGT FTSDY SIα- MeLLD KKAQAib ^1KFIEY LLIKGG PSSGA PPPS-NH2 (SEQ ID NO: 20)], which EC50 [1, 4] is on record?
**A.** 1 pM

**Q.** Which EC50 [1, 4] does the source give for `CC[C@H](C)[C@H](NC(=O)[C@H](Cc1ccccc1)NC(=O)[C@@H]1CCC(=O)N[C@@H](CCCCNC(=O)COCCOCCNC(=O)CC[C@H](NC(=O)CCCCCCCCCCCCCCCCCCC(=O)O)C(=O)O)C(=O)NCCCC[C@H](NC(=O)[C@H](CCCCN)NC(=O)[C@H](CC(=O)O)NC(=O)[C@H](CC(C)C)NC(=O)[C@](C)(CC(C)C)NC(=O)[C@@H](NC(=O)[C@H](CO)NC(=O)[C@H](Cc2ccc(O)cc2)NC(=O)[C@H](CC(=O)O)NC(=O)[C@H](CO)NC(=O)[C@@H](NC(=O)[C@H](Cc2ccccc2)NC(=O)[C@@H](NC(=O)CNC(=O)[C@H](CCC(N)=O)NC(=O)C(C)(C)NC(=O)[C@@H](N)Cc2ccc(O)cc2)[C@@H](C)O)[C@@H](C)O)[C@@H](C)CC)C(=O)N[C@@H](C)C(=O)N[C@@H](CCC(N)=O)C(=O)NC(C)(C)C(=O)N1)C(=O)N[C@@H](CCC(=O)O)C(=O)N[C@@H](Cc1ccc(O)cc1)C(=O)N[C@@H](CC(C)C)C(=O)N[C@@H](CC(C)C)C(=O)N[C@@H](CCC(=O)O)C(=O)NCC(=O)NCC(=O)N1CCC[C@H]1C(=O)N[C@@H](CO)C(=O)N[C@@H](CO)C(=O)NCC(=O)N[C@@H](C)C(=O)N1CCC[C@H]1C(=O)N1CCC[C@H]1C(=O)N1CCC[C@H]1C(=O)N[C@@H](CO)C(N)=O` [Example 10, YAibQGT FTSDY SIα- MeLLD K^1KAQAib ^1EFIEY LLEGG PSSGA PPPS-NH2 (SEQ ID NO: 16)] (H-Y[Aib]QGTFTSDYSI[αMeL]LDKKAQ[Aib]EFIEYLLEGGPSSGAPPPS-NH2; linker 17-21 via X1 (inferred); N-terminus assumed) here?
**A.** 9 pM

**Q.** What about the half-life at 1 μM [2] of the same compound?
**A.** > 3.08 h

**Q.** What about the microsomal CLint at 1 μM [2] of the same compound?
**A.** < 3.75 µL/min/mg

**Q.** What does the source list for `CC[C@H](C)[C@H](NC(=O)[C@H](Cc1ccccc1)NC(=O)[C@H](C)NC(=O)C(C)(C)NC(=O)[C@H](CCC(N)=O)NC(=O)[C@H](C)NC(=O)[C@@H]1CCCCNC(=O)CN(C(=O)COCCOCCNC(=O)CC[C@H](NC(=O)CCCCCCCCCCCCCCCCCCC(=O)O)C(=O)O)CC(=O)NCCCC[C@H](NC(=O)[C@](C)(CC(C)C)NC(=O)[C@@H](NC(=O)[C@H](CO)NC(=O)[C@H](Cc2ccc(O)cc2)NC(=O)[C@H](CC(=O)O)NC(=O)[C@H](CO)NC(=O)[C@@H](NC(=O)[C@H](Cc2ccccc2)NC(=O)[C@@H](NC(=O)CNC(=O)[C@H](CCC(N)=O)NC(=O)C(C)(C)NC(=O)[C@@H](N)Cc2ccc(O)cc2)[C@@H](C)O)[C@@H](C)O)[C@@H](C)CC)C(=O)N[C@@H](CC(=O)O)C(=O)N[C@@H](CCCCN)C(=O)N1)C(=O)N[C@@H](CCC(=O)O)C(=O)N[C@@H](Cc1ccc(O)cc1)C(=O)N[C@@H](CC(C)C)C(=O)N[C@@H](CC(C)C)C(=O)N[C@@H](CCCCN)C(=O)NCC(=O)NCC(=O)N1CCC[C@H]1C(=O)N[C@@H](CO)C(=O)N[C@@H](CO)C(=O)NCC(=O)N[C@@H](C)C(=O)N1CCC[C@H]1C(=O)N1CCC[C@H]1C(=O)N1CCC[C@H]1C(=O)N[C@@H](CO)C(N)=O` [Example 38, YAibQGT FTSDY SIα- MeL^1KD K^1KAQAib AFIEY LLKGG PSSGA PPPS-NH2 (SEQ ID NO: 38)]?
**A.** EC50 [1]: 2 pM; AUC(0-t) ([3]; read-out: AUC0-240 h): 3.88 µM·h; AUC(0-inf) ([3]; read-out: AUCINF): 4.41 µM·h; Cmax ([3]; read-out: Cmax): 33.9 nM; half-life ([3]; read-out: T1/2 (converted)): 74.9 h; Tmax ([3]; read-out: Tmax): 21.3 h

**Q.** With `CC[C@H](C)[C@H](NC(=O)[C@H](Cc1ccccc1)NC(=O)[C@H](C)NC(=O)C(C)(C)NC(=O)[C@H](CCC(N)=O)NC(=O)[C@H](C)NC(=O)[C@@H]1CCCCNC(=O)CN(C(=O)COCCOCCNC(=O)[C@@H](N)CCCCNC(=O)CC[C@H](NC(=O)CCCCCCCCCCCCCCCCCCC(=O)O)C(=O)O)CC(=O)NCCCC[C@H](NC(=O)[C@](C)(CC(C)C)NC(=O)[C@@H](NC(=O)[C@H](CO)NC(=O)[C@H](Cc2ccc(O)cc2)NC(=O)[C@H](CC(=O)O)NC(=O)[C@H](CO)NC(=O)[C@@H](NC(=O)[C@H](Cc2ccccc2)NC(=O)[C@@H](NC(=O)CNC(=O)[C@H](CCC(N)=O)NC(=O)C(C)(C)NC(=O)[C@@H](N)Cc2ccc(O)cc2)[C@@H](C)O)[C@@H](C)O)[C@@H](C)CC)C(=O)N[C@@H](CC(=O)O)C(=O)N[C@@H](CCCCN)C(=O)N1)C(=O)N[C@@H](CCC(=O)O)C(=O)N[C@@H](Cc1ccc(O)cc1)C(=O)N[C@@H](CC(C)C)C(=O)N[C@@H](CC(C)C)C(=O)N[C@@H](CCCCN)C(=O)NCC(=O)NCC(=O)N1CCC[C@H]1C(=O)N[C@@H](CO)C(=O)N[C@@H](CO)C(=O)NCC(=O)N[C@@H](C)C(=O)N1CCC[C@H]1C(=O)N1CCC[C@H]1C(=O)N1CCC[C@H]1C(=O)N[C@@H](CO)C(N)=O` [Example 54, YAibQGT FTSDY SIα- MeL^1KD K^1KAQAib AFIEY LLKGG PSSGA PPPS-NH2 (SEQ ID NO: 38)] as the compound, how does the EC50 [1, 4] read?
**A.** 2 pM

**Q.** Which EC50 [1, 4] does the source give for `CC[C@H](C)[C@H](NC(=O)[C@H](Cc1ccccc1)NC(=O)[C@@H]1CCCCNC(=O)CN(C(=O)[C@@H](N)CCCCNC(=O)[C@@H](N)CCCCNC(=O)CC[C@H](NC(=O)CCCCCCCCCCCCCCCCCCC(=O)O)C(=O)O)CC(=O)NCCCC[C@H](NC(=O)[C@H](CCCCN)NC(=O)[C@H](CC(=O)O)NC(=O)[C@H](CC(C)C)NC(=O)[C@](C)(CC(C)C)NC(=O)[C@@H](NC(=O)[C@H](CO)NC(=O)[C@H](Cc2ccc(O)cc2)NC(=O)[C@H](CC(=O)O)NC(=O)[C@H](CO)NC(=O)[C@@H](NC(=O)[C@H](Cc2ccccc2)NC(=O)[C@@H](NC(=O)CNC(=O)[C@H](CCC(N)=O)NC(=O)C(C)(C)NC(=O)[C@@H](N)Cc2ccc(O)cc2)[C@@H](C)O)[C@@H](C)O)[C@@H](C)CC)C(=O)N[C@@H](C)C(=O)N[C@@H](CCC(N)=O)C(=O)NC(C)(C)C(=O)N1)C(=O)N[C@@H](CCC(=O)O)C(=O)N[C@@H](Cc1ccccc1)C(=O)N[C@@H](CC(C)C)C(=O)N[C@@H](CC(C)C)C(=O)N[C@@H](CCC(=O)O)C(=O)NCC(=O)NCC(=O)N1CCC[C@H]1C(=O)N[C@@H](CO)C(=O)N[C@@H](CO)C(=O)NCC(=O)N[C@@H](C)C(=O)N1CCC[C@H]1C(=O)N1CCC[C@H]1C(=O)N1CCC[C@H]1C(=O)N[C@@H](CO)C(N)=O` [Example 22, YAibQGT FTSDY SIα- MeLLD K^1KAQAib ^1KFIEF LLEGG PSSGA PPPS-NH2 (SEQ ID NO: 25)] here?
**A.** 9 pM
